# Details: not given
Structure (SMILES),melting point,log10 vapour pressure (mmHg),boiling point,ready biodegradability,log10 Henry constant (atm·m³/mol),log10 biodegradation half-life (days),log10 Koc (L/kg),log10 Koa
O=[N+]([O-])c1ccc(C=NO)cc1,128 °C,–,–,–,–,–,–,–
O[C@@H]1CO[C@H]2[C@@H]1OC[C@@H]2O,75.2 °C,–,–,–,–,–,–,–
COC(=O)/C=C(\C)OP(=O)(OC)OC,21 °C,-3.91,–,–,–,–,–,–
Cc1ccc(C=O)c(O)c1,60.5 °C,–,223 °C,–,–,–,–,–
N#CC(O)c1ccccc1 (configuration not stated),-10 °C,–,–,–,–,–,–,–
CCN(CC)c1ccc2c(-c3ccccc3C(=O)O)c3ccc(N(CC)CC)cc3[o+]c2c1.[Cl-],165 °C,–,–,–,–,–,–,–
CC(=O)OC1CC(C)OC(C)O1 (configuration not stated),–,–,–,readily biodegradable,–,–,–,–
C=C(C)[C@@H]1CC[C@]2(CO)CC[C@]3(C)[C@H](CC[C@@H]4[C@@]5(C)CC[C@H](O)C(C)(C)[C@@H]5CC[C@]43C)[C@@H]12,250 °C,–,–,–,–,–,–,–
CN(C)C#N,–,–,164 °C,–,–,–,–,–
CN1[C@@H]2CC[C@H]1C[C@@H](OC(=O)C(O)c1ccccc1)C2 (mixture of isomers),99.5 °C,–,–,–,–,–,–,–
CC(C)c1cccc(O)c1,26 °C,-1.16,228 °C,–,–,–,–,–
CCN(CCO)CCn1c(Cc2ccccc2)nc2c1c(=O)n(C)c(=O)n2C,80 °C,–,–,–,–,–,–,–
CC(C)NCC(O)c1ccc([N+](=O)[O-])cc1 (configuration not stated),98 °C,–,–,–,–,–,–,–
C=CCSSSC,–,-1.3,–,–,–,–,–,–
Clc1ccc(Oc2ccccc2)c(Cl)c1,–,-3.04,–,–,–,–,–,–
C1=CC(c2ccc(C3CC=CCC3)cc2)CCC1 (configuration not stated),–,–,–,not readily biodegradable,–,–,–,–
CCCCCCCCCCCC(O)CC (configuration not stated),31.5 °C,–,–,–,–,–,–,–
Clc1ccc(C(Cl)(Cl)Cl)cc1,–,–,245 °C,–,–,–,–,–
COC(=O)c1ccc(O)c(N)c1,143 °C,–,–,–,–,–,–,–
COc1cc(O)c2c(=O)c(O)c(-c3ccc(O)c(O)c3)oc2c1,295 °C,–,–,–,–,–,–,–
CC(C)NCC(O)COc1cccc2c1C=CC2 (configuration not stated),88.5 °C,–,–,–,–,–,–,–
FC(F)(F)C(F)(F)F,-101 °C,4.4,-78.1 °C,–,1.31,–,–,–

Structure (SMILES),melting point,log10 vapour pressure (mmHg),boiling point,ready biodegradability,log10 Henry constant (atm·m³/mol),log10 biodegradation half-life (days),log10 Koc (L/kg),log10 Koa
COc1cc(CCN)cc(OC)c1OC,35.5 °C,–,–,–,–,–,–,–
COc1ccc(Nc2ccc(OC)cc2)cc1,–,–,–,not readily biodegradable,–,–,–,–
CC(C)CC(C)C,-120 °C,1.9,80.4 °C,–,–,1.68,–,–
O=P(O)(c1ccccc1)c1ccccc1,194 °C,–,–,–,–,–,–,–
CC(C)(C)NC=O,16 °C,-0.569,202 °C,–,–,–,–,–
NCC1CCC(C(=O)O)CC1 (configuration not stated),–,–,–,not readily biodegradable,–,–,–,–
COc1ccc(C(=O)c2cccc(C)c2)cc1C,62.3 °C,–,–,–,–,–,–,–
CC(C)(O)CCCC1=CCC(C=O)CC1 (configuration not stated),-30 °C,–,–,readily biodegradable,–,–,–,–
CC(=O)O[Si](C)(C)OC(C)=O,-12.5 °C,–,165 °C,–,–,–,–,–
CC(=O)Nc1ccc(C#N)cc1,207 °C,–,–,–,–,–,–,–
CSc1ncnc2c1ncn2[C@@H]1O[C@H](CO)[C@@H](O)[C@H]1O,164 °C,–,–,–,–,–,–,–
COC(=O)c1ccccc1,-15 °C,-0.42,199 °C,–,–,–,2.1,–
CC1(C)N=C(N)N=C(N)N1c1ccc(Cl)cc1,146 °C,–,–,–,–,–,–,–
NCCCCCCN,41.5 °C,-0.928,205 °C,readily biodegradable,–,–,–,–
ClC1=C(Cl)C2(Cl)C3C(Cl)OC(Cl)C3C1(Cl)C2(Cl)Cl (configuration not stated),121 °C,-5.53,–,–,–,–,–,–
CC(C)(C)NCCO,44 °C,–,176 °C,not readily biodegradable,–,–,–,–
CCN(CC)CN(CC)CC,–,–,166 °C,–,–,–,–,–
CC(C)CCCCC(C)C,-54.9 °C,–,160 °C,–,–,–,–,–
CNC(=O)Oc1ccccc1C(C)C,94 °C,-4.68,–,not readily biodegradable,–,–,–,–
c1ccc2[nH]cnc2c1,170 °C,–,–,–,–,–,–,–
CCOC(=O)c1ccccc1O,1 °C,-1.07,232 °C,readily biodegradable,–,–,–,–
C1CC2CC1C1OC21 (configuration not stated),123 °C,–,–,–,–,–,–,–

Structure (SMILES),melting point,log10 vapour pressure (mmHg),boiling point,ready biodegradability,log10 Henry constant (atm·m³/mol),log10 biodegradation half-life (days),log10 Koc (L/kg),log10 Koa
c1cc2c(c(NC3=NCCN3)c1)CCCC2,142 °C,–,–,–,–,–,–,–
Clc1cccc2ccccc12,-2.5 °C,-1.54,259 °C,not readily biodegradable,-3.45,–,–,5.8
FCc1ccccc1,-35 °C,0.832,140 °C,–,–,–,–,–
CCCCNC(=O)NS(=O)(=O)c1ccc(N)cc1,144 °C,–,–,–,–,–,–,–
Nc1cc([N+](=O)[O-])ccc1O,144 °C,–,–,–,–,–,–,–
Oc1cccc(O)c1,111 °C,-3.31,280 °C,readily biodegradable,–,–,0.98,–
CCOC(=O)C(O)(c1ccc(Cl)cc1)c1ccc(Cl)cc1,37 °C,-5.66,–,not readily biodegradable,–,–,3.3,–
Cc1cccc(Cl)c1Cl,6 °C,–,208 °C,–,–,–,–,–
COP(=S)(OC)SCC(=O)N(C)C=O,25.5 °C,-6.07,–,–,–,–,–,–
C=COC(=O)CCC,117 °C,–,–,–,–,–,–,–
O=C(O)Cc1cccc([N+](=O)[O-])c1,118 °C,–,–,–,–,–,–,–
C=C(C)C1CC=C(C)C(=O)C1 (configuration not stated),–,–,230 °C,–,–,–,–,–
CC(=O)CC(C)(C)N,–,-0.699,180 °C,–,–,–,–,–
C=C(CC(=O)OC)C(=O)OC,38 °C,–,208 °C,–,–,–,–,–
CC1(O)CCC(C(C)(C)O)CC1 (configuration not stated),158 °C,–,–,–,–,–,–,–
O=S(=O)(c1ccccc1)c1ccccc1,128 °C,–,279 °C,–,–,–,–,–
CNC(=O)O/N=C1\[C@@H](Cl)[C@@H]2C[C@H](C#N)[C@H]1C2,144 °C,–,–,–,–,–,–,–
ClC(Cl)=C(c1ccc(Cl)cc1)c1ccc(Cl)cc1,89 °C,-5.22,336 °C,–,-4.38,–,4.82,9.68
C[C@]12CC[C@H]3[C@@H](CCC4=CC(=O)CC[C@@]43C)[C@@H]1CC[C@@H]2O,155 °C,–,–,–,–,–,–,–
O=C(O)C1CCC1,-2 °C,–,190 °C,–,–,–,–,–
C#CC(OCC)OCC,–,–,139 °C,–,–,–,–,–
O=C(O)C(F)(F)C(F)(F)C(F)(F)C(F)(F)C(=O)O,134 °C,–,–,–,–,–,–,–

Structure (SMILES),melting point,log10 vapour pressure (mmHg),boiling point,ready biodegradability,log10 Henry constant (atm·m³/mol),log10 biodegradation half-life (days),log10 Koc (L/kg),log10 Koa
Cc1ccc(C[N+](=O)[O-])cc1,11.5 °C,–,–,–,–,–,–,–
O=[N+]([O-])c1ccc(Nc2ccc(O)cc2)c([N+](=O)[O-])c1,194 °C,-11.4,–,–,–,–,–,–
CCCCCC(=O)OC(=O)CCCCC,-41 °C,–,–,–,–,–,–,–
Nc1cccc2ccccc12,49.2 °C,-2.38,301 °C,not readily biodegradable,-6.95,–,3.51,–
CC(=O)c1ccccn1,–,–,192 °C,–,–,–,–,–
O=C1c2ccccc2C(=O)c2c1ccc(O)c2O,290 °C,-9.06,430 °C,–,–,–,–,–
COCC(C)O (configuration not stated),-95 °C,1.1,119 °C,readily biodegradable,-6.04,–,–,–
CC1(C)CC[C@]2(C)CC[C@]3(C)C(=CC[C@@H]4[C@@]5(C)CC[C@H](O)C(C)(C)[C@@H]5CC[C@]43C)[C@@H]2C1,197 °C,–,–,–,–,–,–,–
Clc1ccccc1-c1ccccc1,34 °C,-2.86,274 °C,–,-3.13,–,3.47,–
CCCCNC(=O)n1cc(F)c(=O)[nH]c1=O,136 °C,–,–,–,–,–,–,–
CC1(C)O[C@@H]2C[C@H]3[C@@H]4CCC5=CC(=O)C=C[C@]5(C)[C@@]4(F)[C@@H](O)C[C@]3(C)[C@]2(C(=O)CO)O1,293 °C,–,–,–,–,–,–,–
Clc1cc(Cl)cc(Cl)c1,63.5 °C,-0.62,208 °C,not readily biodegradable,-2.72,–,2.85,4.85
N#CCCNc1ccccc1,52.5 °C,–,–,–,–,–,–,–
CC(C)N(Cc1ccccc1)C(=O)C(C)(C)C,–,-3.18,–,–,–,–,–,–
COc1cc(NCc2ccc3nc(N)nc(N)c3c2C)cc(OC)c1OC,216 °C,–,–,–,–,–,–,–
CC(=O)Cc1c[nH]c2ccccc12,116 °C,–,–,–,–,–,–,–
CC1CC(OC(=O)C(O)c2ccccc2)CC(C)(C)C1 (configuration not stated),56 °C,–,–,–,–,–,–,–
ClCc1cc(Cl)c(Cl)cc1Cl,–,–,273 °C,–,–,–,–,–
Nc1ccc(Br)cc1,66.4 °C,–,–,–,–,–,1.96,–

# Same assay, conditions: fish
Structure (SMILES),log10 BCF,log10 biotransformation half-life (days)
CNC(=O)Oc1ccccc1C(C)C,0.95,-1.25
CCOC(=O)C(O)(c1ccc(Cl)cc1)c1ccc(Cl)cc1,2.68,-0.08
ClC(Cl)=C(c1ccc(Cl)cc1)c1ccc(Cl)cc1,4.08,1.71
Nc1cccc2ccccc12,1.4,-0.24
Clc1cc(Cl)cc(Cl)c1,2.97,1.19

# Reference: the OPERA property sets (Mansouri et al. 2018)
